From the supplement of paper PMC11451515

System: SEM cells
Assay: cell viability relative to DMSO control; higher = less cytotoxic
Conditions: 48 h
In short: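 Before seeding, each leukemia line was adapted for at least four passages in each medium. NOMO1 or SEM cells (500 cells/well) and P12-Ichikawa cells (1000 cells/well) went into 1536-well plates at 5 μl, then received library compounds in DMSO by pin dosing across 11 threefold concentrations, 47 μM to 0.79 nM. Readout was CellTiter-Glo One luminescence after 48 h at 37°C, and viability is given as a per-plate percentage of DMSO wells, with cell-free wells as background.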

[1] = HPLM + 10% dialyzed FBS, 0.000781 µM
[2] = HPLM + 10% dialyzed FBS, 0.00234 µM
[3] = HPLM + 10% dialyzed FBS, 0.00702 µM
[4] = HPLM + 10% dialyzed FBS, 0.0211 µM
[5] = HPLM + 10% dialyzed FBS, 0.0632 µM
[6] = HPLM + 10% dialyzed FBS, 0.19 µM
[7] = HPLM + 10% dialyzed FBS, 0.569 µM
[8] = HPLM + 10% dialyzed FBS, 1.71 µM
[9] = HPLM + 10% dialyzed FBS, 5.12 µM
[10] = HPLM + 10% dialyzed FBS, 15.4 µM
[11] = HPLM + 10% dialyzed FBS, 46.1 µM
[12] = RPMI 5 mM glucose + 10% FBS, 0.000781 µM
[13] = RPMI 5 mM glucose + 10% FBS, 0.00234 µM
[14] = RPMI 5 mM glucose + 10% FBS, 0.00702 µM
[15] = RPMI 5 mM glucose + 10% FBS, 0.0211 µM
[16] = RPMI 5 mM glucose + 10% FBS, 0.0632 µM
[17] = RPMI 5 mM glucose + 10% FBS, 0.19 µM
[18] = RPMI 5 mM glucose + 10% FBS, 0.569 µM
[19] = RPMI 5 mM glucose + 10% FBS, 1.71 µM
[20] = RPMI 5 mM glucose + 10% FBS, 5.12 µM
[21] = RPMI 5 mM glucose + 10% FBS, 15.4 µM
[22] = RPMI 5 mM glucose + 10% FBS, 46.1 µM
[23] = RPMI 5 mM glucose + 10% dialyzed FBS, 0.000781 µM
[24] = RPMI 5 mM glucose + 10% dialyzed FBS, 0.00234 µM
[25] = RPMI 5 mM glucose + 10% dialyzed FBS, 0.00702 µM
[26] = RPMI 5 mM glucose + 10% dialyzed FBS, 0.0211 µM
[27] = RPMI 5 mM glucose + 10% dialyzed FBS, 0.0632 µM
[28] = RPMI 5 mM glucose + 10% dialyzed FBS, 0.19 µM
[29] = RPMI 5 mM glucose + 10% dialyzed FBS, 0.569 µM
[30] = RPMI 5 mM glucose + 10% dialyzed FBS, 1.71 µM
[31] = RPMI 5 mM glucose + 10% dialyzed FBS, 5.12 µM
[32] = RPMI 5 mM glucose + 10% dialyzed FBS, 15.4 µM
[33] = RPMI 5 mM glucose + 10% dialyzed FBS, 46.1 µM

Structure (SMILES) | cell viability [1] | cell viability [2] | cell viability [3] | cell viability [4] | cell viability [5] | cell viability [6] | cell viability [7] | cell viability [8] | cell viability [9] | cell viability [10] | cell viability [11] | cell viability [12] | cell viability [13] | cell viability [14] | cell viability [15] | cell viability [16] | cell viability [17] | cell viability [18] | cell viability [19] | cell viability [20] | cell viability [21] | cell viability [22] | cell viability [23] | cell viability [24] | cell viability [25] | cell viability [26] | cell viability [27] | cell viability [28] | cell viability [29] | cell viability [30] | cell viability [31] | cell viability [32] | cell viability [33]
CC1(C)O[C@@H]2C[C@H]3[C@@H]4CCC5=CC(=O)C=C[C@]5(C)[C@H]4[C@@H](O)C[C@]3(C)[C@]2(C(=O)CO)O1 | 74.9% | 34.7% | 89.1% | 77% | 72.8% | 73.6% | 66.3% | 57.7% | 60.3% | 60.3% | 53.6% | 99.8% | 39.1% | 96.1% | 95.7% | 89.1% | 83.2% | 67.5% | 61.8% | 65.2% | 58.4% | 55.4% | 79.7% | 37.8% | 82.4% | 81.8% | 80% | 88.1% | 68.4% | 51.9% | 53.9% | 49.8% | 53.4%
OC1=CC2=C(C(=C1)O)C(=O)\C=C(/O2)C3=CC=CC=C3 | 89.7% | 92.5% | 93% | 107% | 94.5% | 112% | 94.4% | 115% | 85% | 61.9% | 8.24% | 88.2% | 103% | 106% | 94.2% | 105% | 101% | 92% | 104% | 77.2% | 35.8% | 4.9% | 85.8% | 96.6% | 95.3% | 91.5% | 99.9% | 97.7% | 97.3% | 111% | 94.5% | 59.6% | 11.9%
CC(C)=CC[C@@H](O)C/1=C/C(=O)C2=C(O)C=CC(=C2C1=O)O | 76.2% | 90.2% | 89.5% | 96% | 98.3% | 97.7% | 93.5% | 91.4% | 98.7% | 119% | 77.4% | 82.4% | 76.6% | 79.2% | 81.9% | 93.2% | 98.3% | 92.3% | 105% | 86.2% | 77.8% | 47.1% | 72.2% | 87.8% | 85.8% | 95.5% | 99% | 104% | 111% | 117% | 87.4% | 80.4% | 21.6%
Cc1cnc(NC(=O)Nc2cc(Br)c(C)cc2OC[C@@H]2CNCCO2)cn1 | 95% | 112% | 110% | 115% | 117% | 107% | 65.8% | 31.8% | 22.6% | 24.4% | 22.5% | 103% | 114% | 78.6% | 105% | 109% | 110% | 91% | 33% | 27.5% | 33.8% | 17.5% | 108% | 101% | 95.2% | 106% | 100% | 98.1% | 66.8% | 21.9% | 19.7% | 21.8% | 17.2%
FC(F)c1nc2ccccc2n1-c1nc(N2CCOCC2)nc(N2CCOCC2)n1 | 85.1% | 79% | 83.6% | 85.9% | 73.8% | 62.8% | 61.3% | 66.6% | 49.7% | 60% | 38.7% | 87.6% | 80.7% | 93.5% | 84.4% | 75.3% | 70.5% | 75.6% | 63.1% | 66% | 62.4% | 45.8% | 84.2% | 78.9% | 71.9% | 87.5% | 72.2% | 68.7% | 60.6% | 63.1% | 66% | 54.3% | 37.1%
